Experimental findings from patent publication US20100317709A1, “SPHINGOSINE-1-PHOSPHATE (S1P) RECEPTOR COMPOUNDS” (UNIVERSITEIT LEIDEN, priority 2007, published 2010) are described below.

The target in one data set is S1P3 receptor (Homo sapiens, UniProt Q99500). Put plainly: cAMP accumulation assay at the S1P3 receptor (Lance cAMP 384 kit). Format: cell-based. As to conditions: for EC50: N.D. = not defined because the potency and/or the efficacy were too low, read-out: pEC50 S1P3 (converted); for efficacy (α) S1P3: S1P = 1.00, N.D. = not defined because the potency and/or the efficacy were too low. The source says:
(§1) A primary function of certain cell surface receptors is to activate second messenger systems upon binding of an agonist. The S1P1 receptor selectively binds to and activates Gi-proteins and activation of this receptor subtype thus results in the inhibition of cAMP production. The S1P2 receptor predominantly activates Gq-proteins finally resulting in increases in intracellular calcium. S1P3 receptor activation results in both, an inhibition of cAMP production and an increase in intracellular calcium, via the activation of Gi- and Gq-proteins
(§2) Accordingly, we performed measurements on cAMP accumulation (Lance cAMP 384 kit, Perkin Elmer, Zaventem, Belgium) and measurements on changes in intracellular calcium (for method see Jongsma et al., 2006) (8).
A general note: Changes in cAMP serve as a functional read-out for many G protein-coupled receptors.

The target in the next data set is S1P1 receptor (Homo sapiens, UniProt P21453). Put plainly: cAMP accumulation assay at the S1P1 receptor (Lance cAMP 384 kit). Format: cell-based. Particulars: for EC50: N.D. = not defined because the potency and/or the efficacy were too low, read-out: pEC50 S1P1 (converted); for efficacy (α) S1P1: S1P = 1.00, N.D. = not defined because the potency and/or the efficacy were too low.
Source text: as §1, §2

As usually defined, the melting point is the temperature of the solid-liquid transition.

Sequence of S1P3 receptor (Q99500 whole entry): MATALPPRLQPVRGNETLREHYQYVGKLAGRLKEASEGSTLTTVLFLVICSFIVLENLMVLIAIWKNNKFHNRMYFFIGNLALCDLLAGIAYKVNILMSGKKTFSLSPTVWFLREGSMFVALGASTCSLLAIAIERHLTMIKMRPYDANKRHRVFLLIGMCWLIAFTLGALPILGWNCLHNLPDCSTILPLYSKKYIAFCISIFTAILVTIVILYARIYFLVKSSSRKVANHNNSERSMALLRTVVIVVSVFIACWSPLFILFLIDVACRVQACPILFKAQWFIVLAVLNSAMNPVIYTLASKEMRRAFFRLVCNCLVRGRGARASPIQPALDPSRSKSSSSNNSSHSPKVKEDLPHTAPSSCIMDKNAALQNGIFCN
Sequence of S1P1 receptor (P21453 whole entry): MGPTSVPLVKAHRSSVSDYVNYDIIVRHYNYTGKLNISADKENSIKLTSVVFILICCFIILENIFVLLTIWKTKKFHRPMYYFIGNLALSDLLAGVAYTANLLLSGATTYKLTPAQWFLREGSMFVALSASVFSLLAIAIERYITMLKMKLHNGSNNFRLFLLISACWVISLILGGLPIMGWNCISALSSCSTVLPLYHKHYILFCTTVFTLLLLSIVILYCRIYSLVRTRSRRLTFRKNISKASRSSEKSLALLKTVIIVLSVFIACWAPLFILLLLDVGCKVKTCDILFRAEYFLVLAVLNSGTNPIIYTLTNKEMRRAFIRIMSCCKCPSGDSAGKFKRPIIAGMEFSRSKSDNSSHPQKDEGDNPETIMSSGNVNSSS

Regarding `Nc1sc2c(c1C(=O)c1ccccc1)CCCC2` [LUF5465, (2-Amino-4,5,6,7-tetrahydrobenzo[b]thiophen-3-yl)(phenyl)methanone], on S1P3 receptor, the EC50 is greater than 10000 nM and the “efficacy (α) S1P3” value is greater than 0.5.
`Nc1sc2c(c1C(=O)c1ccc(C(F)(F)F)cc1)CCCC2` [LUF5489, (2-Amino-4,5,6,7-tetrahydrobenzo[b]thiophen-3-yl)[4-(trifluoromethyl)phenyl]methanone] had a melting point of 145 to 147 °C. Further, the EC50 on S1P3 receptor was greater than 10000 nM.
In turn, `Nc1sc(-c2ccccc2)cc1C(=O)c1ccc(Cl)cc1` [LUF5488, (2-Amino-5-phenyl-3-thienyl)(4-chlorophenyl)methanone] gave a melting point of 173 to 175 °C.
On to `Cc1sc(N)c(C(=O)c2ccc(Cl)cc2)c1C` [LUF5487, (2-Amino-4,5-dimethyl-3-thienyl)(4-chlorophenyl)methanone], for which the melting point lay within 123 to 125 °C.
For the compound `Nc1sc2c(c1C(=O)c1cccc(C(F)(F)F)c1)CCCC2` [LUF5469, (2-Amino-4,5,6,7-tetrahydrobenzo[b]thiophen-3-yl)[3-(trifluoromethyl)phenyl]methanone], the melting point lay within 122 to 123 °C. In addition, at S1P3 receptor, the EC50 is 1290 nM and the “efficacy (α) S1P3” value was 1.07.
Taken in the same sequence, the figures for `Nc1sc2c(c1C(=O)c1ccc(Br)cc1)CCCC2` [LUF5490, (2-Amino-4,5,6,7-tetrahydrobenzo[b]thiophen-3-yl)(4-bromophenyl)methanone] were 152 to 153 °C, 1150 nM and 0.41.
`Nc1sc(CN2C(=O)c3ccccc3C2=O)cc1C(=O)c1cccc(C(F)(F)F)c1` [LUF5496, 2-({5-Amino-4-[3-(trifluoromethyl)benzoyl]-2-thienyl}methyl)-1,3-isoindolinedione]: the melting point was 199 to 200 °C. Also, at S1P3 receptor, the EC50 was greater than 10000 nM.
For `Cc1sc(N)c(C(=O)c2cccc(Cl)c2)c1C` [LUF5471, (2-Amino-4,5-dimethyl-3-thienyl)(3-chlorophenyl)methanone], the melting point was 114 to 116 °C.
Still for that read-out and setting: the result for `CCc1c(C)sc(N)c1C(=O)c1cccc(C(F)(F)F)c1` [LUF5468, (2-Amino-4-ethyl-5-methyl-3-thienyl)[3-(trifluoromethyl)phenyl]methanone] reads 100 to 101 °C.
In turn, `COC(=O)c1ccc(C(=O)c2c(N)sc3c2CCCC3)cc1` [LUF5492, Methyl 4[(2-Amino-4,5,6,7-tetrahydrobenzo[b]thiophen-3-yl)-carbonyl]benzoate] displayed a melting point of 159 to 160 °C. Moreover, at S1P3 receptor, the EC50 was 933 nM and the “efficacy (α) S1P3” value came to 0.25.
In the same order, the values of `Cc1ccc(C(=O)c2c(N)sc3c2CCCC3)cc1` [LUF5527, (2-Amino-4,5,6,7-tetrahydrobenzo[b]thiophen-3-yl)(4-methylphenyl)methanone] are 155 to 156 °C, 3090 nM and 0.96.
Taken in the same sequence, the figures for `Nc1sc2c(c1C(=O)c1ccc(Cl)c(Cl)c1)CCCC2` [LUF5484, (2-Amino-4,5,6,7-tetrahydrobenzo[b]thiophen-3-yl)(3,4-dichlorophenyl)methanone] were 152 to 154 °C, greater than 10000 nM and <0.5 (n = 2).
As to `Nc1sc2c(c1C(=O)c1ccc(C(=O)O)cc1)CCCC2` [LUF5493, 4-[(2-Amino-4,5,6,7-tetrahydrobenzo[b]thiophen-3-yl)-carbonyl]benzoic acid], the melting point is 232 to 233 °C.
`Nc1sc2c(c1C(=O)c1cccc(Cl)c1)CCCC2` [LUF5473, (2-Amino-4,5,6,7-tetrahydrobenzo[b]thiophen-3-yl)(3-chlorophenyl)methanone] came in with a melting point of 114 to 115 °C. Further, at S1P1 receptor, the EC50 was 1000 nM and the “efficacy (α) S1P1” value is recorded as 0.40. In addition, on S1P3 receptor, the EC50 was 1860 nM and the “efficacy (α) S1P3” value is listed as 1.07.
Turning to `CCc1c(C)sc(N)c1C(=O)c1ccc(Cl)cc1` [LUF5482, (2-Amino-4-ethyl-5-methyl-3-thienyl)(4-chlorophenyl)methanone], the melting point lay within 108 to 110 °C.
In turn, `CCc1c(C)sc(N)c1C(=O)c1ccccc1` [LUF5464, (2-Amino-4-ethyl-5-methyl-3-thienyl)(phenyl)methanone] returned a melting point of 129 to 131 °C. In addition, on S1P3 receptor, the EC50 was greater than 10000 nM and the “efficacy (α) S1P3” value was “+/−1 (n = 3)”.
`Nc1sc2c(c1C(=O)c1ccc([N+](=O)[O-])cc1)CCCC2` [LUF5526, (2-Amino-4,5,6,7-tetrahydrobenzo[b]thiophen-3-yl)(4-nitrophenyl)methanone] registered a melting point of 202 to 204 °C.
Consider `Nc1sc2c(c1C(=O)c1ccc(I)cc1)CCCC2` [LUF5528, (2-Amino-4,5,6,7-tetrahydrobenzo[b]thiophen-3-yl)(4-iodophenyl)methanone], for which the melting point lay in the range of 150 to 152 °C. For the same compound, on S1P3 receptor, the EC50 is greater than 10000 nM and the “efficacy (α) S1P3” value is reported as <0.5 (n = 2).
Turning to `CCCCCCCCCCCCC/C=C/[C@@H](O)[C@@H](N)COP(=O)(O)O` [S1P, sphingosine-1-phosphate], at S1P1 receptor, the EC50 was 0.138 nM and the “efficacy (α) S1P1” value is recorded as 1.00. Moreover, at S1P3 receptor, the EC50 was 0.347 nM and the “efficacy (α) S1P3” value is reported as 1.00.
The compound `Nc1sc2c(c1C(=O)c1ccccc1Cl)CCCC2` [LUF5532, (2-Amino-4,5,6,7-tetrahydrobenzo[b]thiophen-3-yl)(2-chlorophenyl)methanone] gave a melting point of 145 to 147 °C. For the same compound, at S1P1 receptor, the EC50 is 4170 nM and the “efficacy (α) S1P1” value came to 0.63. Also, at S1P3 receptor, the EC50 was 4170 nM and the “efficacy (α) S1P3” value came out at 0.71.
Take `Nc1sc2c(c1C(=O)c1ccc(Cl)cc1)CCCC2` [LUF5480, (2-Amino-4,5,6,7-tetrahydrobenzo[b]thiophen-3-yl)(4-chlorophenyl)methanone]: at S1P3 receptor, the EC50 was 6760 nM and the “efficacy (α) S1P3” value is 0.37.
`CCc1c(C)sc(N)c1C(=O)c1cccc(Cl)c1` [LUF5472, (2-Amino-4-ethyl-5-methyl-3-thienyl)(3-chlorophenyl)methanone] displayed a melting point of 99 to 102 °C.
For the compound `Nc1sc2c(c1C(=O)c1cccc(I)c1)CCCC2` [LUF5533, (2-Amino-4,5,6,7-tetrahydrobenzo[b]thiophen-3-yl)(3-iodophenyl)methanone], the melting point lay within 160 to 162 °C. Besides, at S1P1 receptor, the EC50 was 1380 nM and the “efficacy (α) S1P1” value is recorded as 0.46. In addition, on S1P3 receptor, the EC50 was 1260 nM and the “efficacy (α) S1P3” value is recorded as 0.94.
